Experimental data published in patent US12636283B2, “Inhibition of PRC2 subunits to treat eye disorders” (FONDATION ASILE DES AVEUGLES, priority 2018, dated 2026).
“Also recorded” adds a separate entry of the source.

Columns and labels:
[1] = test system: Rd1 mice; experiment: Intravitreal injection of UNC1999 in PN8 Rd1 mice, H3K27me3 and TUNEL staining of the ONL; assay type: in vivo, mouse
Method: The UNC1999 inhibitor was supplied as lyophilized powder from commercial source (#SML0778-5MG, SIGMA). The stock solution was prepared in 100% DMSO according to the manufacturer's instructions. Sufficient amount of DMSO was added to the vial to generate a 10 mM stock solution. For optimal injection procedure, we reviewed three different parameters prior to intermediate solution preparation. Firstly, considering the volume of the vitreous of young mice (post-natal day 8, PN08) which is approximately 5.3 μl; the maximum safe amount (1 μl) that could be injected (final volume 6.3 μl) and the calculated effective dose of […] obtained from increasing doses along with cell culture experiments (see below). Therefore, the stock solution was then diluted in physiological buffer (0.9% NaCl) in order to make a 20 μM intermediate solution for subsequent experiments.
(§1) The compound was delivered by intravitreal injection into the eyeball of PN08 Rd1 littermates. The animals (08 in total) were first anesthetized intraperitoneally (ip) with a mixture of 20 mg/kg Ketamine+300 μg/Kg of Dorbene. After 30 min, the recovery was performed by an ip injection of 300 μg/kg of Alzane. When necessary, the future edge of the eyelid was forced to open and maintained with forceps. The injection needle filled with 20 μM UNC1999 solution was inserted carefully into the vitreous through the sclera. A single dose (1 μl) of the intermediate solution was delivered slowly, leading to a final concentration of 2.5-3 μM, with a corresponding DMSO concentration of 0.0317%. For each animal, one eye received the compound whereas the other eye was injected with the vehicle. The injected animals were kept warmed and benefited from closest inspection until they wake up from anesthesia. 400 μl of 5% glucose and paracetamol were administered subcutaneously and intraperitoneally respectively to help for recovery before transferred back to their normal habits. The mice were sacrificed 4 days post injection and the eyeball excised as described below. Before processing, the eyes were carefully inspected for any sign of cataracts and unexpected lesions. Similarly, a single dose of UNC1999 (solution of 36 μM) was administered by intravitreal injection to 2 months old Fam161a^−/− mice (slow degenerative process), with repeated injection every week. The animal was sacrificed 4 days after the fourth injection.
The animals were sacrificed by a 7 min exposure to CO2. The Histology was performed on enucleated eyes. Prior to cryosectioning, the eye globes were excised from the optic nerve and were perforated at the cornea level (a single tiny hole) with 25 G needle and transfer to 4% PFA (w/v) at RT. After 1 h incubation period, the eyes were washed in PBS 1× before being transferred in 30% sucrose over night at 4° C. The eyes were embedded in yazula and frozen at −20° C. and then 14 μm sections were performed with cryostat. The sections were collected on six serial slides for each eye. All quantifications were performed on the most central cryosections including (or surrounding) the optic nerve. Measurements of rows of nuclei were taken at the same geographic area for both dorsal and ventral sides of the retina in all sections and slides analyzed. The data were pooled as a mean for the dorsal or ventral zone of the retina
The frozen slides were warmed at RT, rehydrated and washed 3 times with PBS 1×. […]

[2] = test system: C57/B16 healthy mice; experiment: ERG recording of retina function in healthy mice before and one week after intravitreal injection; assay type: in vivo, mouse
Method: To test whether the UNC1999 dose tested ([…]) has a toxic effect on retina function, the retina activity of control (injected with the vehicle, DMSO) and UNC1999 treated C57/B16 healthy mice was recorded by ERG before and one week after intravitreal injection (FIG. 12). In scotopic condition, the b-wave maximum amplitude baseline of the DMSO treated group was a bit higher than the UNC1999 group one before the injection.

[3] = biological target: T1, EZH2 (Mus musculus, UniProt Q61188); experiment: UNC1999 treatment of mouse embryonic fibroblasts, H3K27me3 immunostaining and western blot; assay type: cell-based
T1 construct: endogenous in cells; host or cells: Mouse Embryonic Fibroblasts (MEF)
T1 sequence (Q61188 whole entry): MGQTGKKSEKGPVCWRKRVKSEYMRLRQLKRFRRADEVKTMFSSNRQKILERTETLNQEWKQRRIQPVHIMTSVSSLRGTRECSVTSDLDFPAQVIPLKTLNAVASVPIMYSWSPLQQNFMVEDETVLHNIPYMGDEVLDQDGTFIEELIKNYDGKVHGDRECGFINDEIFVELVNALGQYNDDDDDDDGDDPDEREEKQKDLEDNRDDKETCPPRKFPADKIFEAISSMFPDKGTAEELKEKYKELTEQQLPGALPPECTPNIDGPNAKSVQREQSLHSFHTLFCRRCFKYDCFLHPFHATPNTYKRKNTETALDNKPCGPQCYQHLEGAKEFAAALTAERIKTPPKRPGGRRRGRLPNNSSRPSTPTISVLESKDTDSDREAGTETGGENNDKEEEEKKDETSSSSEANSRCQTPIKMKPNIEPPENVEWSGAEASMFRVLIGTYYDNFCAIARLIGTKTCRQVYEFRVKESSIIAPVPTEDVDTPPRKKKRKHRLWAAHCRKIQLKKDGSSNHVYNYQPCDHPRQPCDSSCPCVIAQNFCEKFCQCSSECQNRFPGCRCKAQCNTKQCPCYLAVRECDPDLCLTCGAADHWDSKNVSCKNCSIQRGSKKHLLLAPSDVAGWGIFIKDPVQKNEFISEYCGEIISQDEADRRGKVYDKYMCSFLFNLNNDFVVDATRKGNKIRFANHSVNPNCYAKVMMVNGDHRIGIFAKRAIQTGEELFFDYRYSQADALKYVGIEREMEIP
T1 sequence (Q921E6 whole entry partner): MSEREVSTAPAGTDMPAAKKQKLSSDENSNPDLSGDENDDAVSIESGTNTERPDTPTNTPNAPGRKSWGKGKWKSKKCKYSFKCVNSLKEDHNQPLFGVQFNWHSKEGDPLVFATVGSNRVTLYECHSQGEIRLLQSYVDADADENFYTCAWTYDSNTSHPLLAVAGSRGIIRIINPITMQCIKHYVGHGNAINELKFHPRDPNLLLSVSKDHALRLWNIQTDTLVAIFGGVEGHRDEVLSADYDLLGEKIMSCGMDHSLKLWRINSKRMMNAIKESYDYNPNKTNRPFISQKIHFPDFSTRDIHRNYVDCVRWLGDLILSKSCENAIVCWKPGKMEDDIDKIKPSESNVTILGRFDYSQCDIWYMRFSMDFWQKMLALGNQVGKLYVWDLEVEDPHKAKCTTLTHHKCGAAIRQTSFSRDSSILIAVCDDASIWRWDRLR
T1 sequence (Q80U70 whole entry partner): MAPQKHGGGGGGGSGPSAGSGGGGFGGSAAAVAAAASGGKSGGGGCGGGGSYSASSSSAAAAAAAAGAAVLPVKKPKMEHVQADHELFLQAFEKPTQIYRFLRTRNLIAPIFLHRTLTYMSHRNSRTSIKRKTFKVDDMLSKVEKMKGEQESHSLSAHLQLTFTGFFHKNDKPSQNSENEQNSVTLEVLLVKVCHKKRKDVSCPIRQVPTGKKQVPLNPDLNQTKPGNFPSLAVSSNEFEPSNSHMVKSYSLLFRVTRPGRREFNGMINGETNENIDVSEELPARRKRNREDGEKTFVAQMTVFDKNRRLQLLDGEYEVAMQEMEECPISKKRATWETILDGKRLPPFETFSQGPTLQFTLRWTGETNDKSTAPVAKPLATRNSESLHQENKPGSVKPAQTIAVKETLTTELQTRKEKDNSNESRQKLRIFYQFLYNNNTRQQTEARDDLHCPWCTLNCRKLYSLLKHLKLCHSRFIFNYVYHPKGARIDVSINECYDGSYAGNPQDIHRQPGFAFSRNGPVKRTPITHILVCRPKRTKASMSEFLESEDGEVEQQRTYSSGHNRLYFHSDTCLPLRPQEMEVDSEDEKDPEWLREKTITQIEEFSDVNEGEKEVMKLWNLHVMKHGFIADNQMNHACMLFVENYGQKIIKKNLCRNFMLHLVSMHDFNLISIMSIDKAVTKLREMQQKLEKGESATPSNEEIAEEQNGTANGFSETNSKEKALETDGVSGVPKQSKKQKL
T1 sequence (Q60972 whole entry partner): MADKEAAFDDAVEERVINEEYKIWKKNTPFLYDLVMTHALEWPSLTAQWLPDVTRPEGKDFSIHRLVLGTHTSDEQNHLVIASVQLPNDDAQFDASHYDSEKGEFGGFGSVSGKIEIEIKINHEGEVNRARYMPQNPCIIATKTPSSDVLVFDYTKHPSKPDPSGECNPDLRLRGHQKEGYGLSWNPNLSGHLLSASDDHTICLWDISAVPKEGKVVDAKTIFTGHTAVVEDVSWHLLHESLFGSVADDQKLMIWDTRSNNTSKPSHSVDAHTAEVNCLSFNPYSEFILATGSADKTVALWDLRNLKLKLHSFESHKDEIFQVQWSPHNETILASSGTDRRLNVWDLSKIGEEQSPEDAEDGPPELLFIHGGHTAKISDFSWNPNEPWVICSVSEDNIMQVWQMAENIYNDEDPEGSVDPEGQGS
Method: Mouse Embryonic Fibroblasts (MEF) were maintained in culture in Dulbecco's Modified Eagle's Media (DMEM), 10% fetal bovine serum (FBS) with penicillin and streptomycin, at 37° C., 5% CO2. The day before treatment, the cells were trypsinized and seeded at a density of 50,000 cells on poly-ornithine coated coverslips in 24 well plates. The next day, the media was discarded and fresh media containing various doses of the UNC1999 inhibitor dissolved in dimethyl sulfoxide (DMSO), ranging from 1 μM to 50 μM was added in triplicates, then incubated back at 37° C. for 48H. Control cells received the respective dimethyl sulfoxide DMSO used with the UNC1999. The coverslips were washed 3 times with pre-warmed phosphate buffer saline (PBS) 1× at room temperature (RT). The cells were fixed with 4% paraformaldehyde (PFA) for 12 min at RT. After two more washes in PBS, the cells were immediately proceeded for immunostaining. For western blot analysis, 200,000 cells were seeded in triplicates in 6 wells plates and treated as above.
Immunohistochemistry was performed on treated and non-treated slides. The sections were washed 3 times with cooled PBS 1× before being permeabilized with Triton X-100 for 20 min to further allow optimal antibodies-antigens interactions everywhere in the tissue and cells. The sections were blocked for 1 h with buffer containing 3% BSA (w/v), 5% NGS (v/v) in PBS 1× containing 0.3% Triton X-100. Appropriate antibodies dilutions (see list of antibodies with their respective applications in Table 2) were prepared in blocking solution and sufficient amount were laid and transferred to 4° C. over-night. The next day, the antibodies solutions were shed-off and the remaining non-interacting probes were washed off 3 times with PBS 1×. Interacting probes were then detected by applying a solution of appropriate conjugated secondary antibodies Alexa Fluor 488 or Alexa fluor 633 diluted in PBS 1× 1 h at RT. Finally, the nuclei were counterstained with 4′,6-diamidino-2-phenylindole (DAPI) solution prepared in PBS. Alternatively, for difficult to retrieve antigens such as cGMP and CDK4, special conditions were applied: Successful detection of CDK4 requires signal amplification, either with TSA* fluorescein detection kit (PerkinElmer) or 3,3′-diaminobenzidine (DAB) revelation system (Dako) according to providers instructions. The cGMP detection was achieved by permeabilizing the membrane with soft detergent solution (0.1% Triton X-100) and using Tris buffer (TBS) throughout the incubation steps. All the preparations were mounted with Mowiol and measurements were taken using an Olympus BX60 fluorescence microscope or Zeiss confocal microscopy (LSM 510 3.2 software). […]

[4] = test system: Fam161a-/- mice; experiment: Repeated weekly intravitreal injection of UNC1999 in Fam161a-/- mice, photoreceptor rows and H3K27me3; assay type: in vivo, mouse; conditions: 2-month-old Fam161a-/- mice
Method: as §1
The animals were sacrificed by a 7 min exposure to CO2. […] All quantifications were performed on the most central cryosections including (or surrounding) the optic nerve. Measurements of rows of nuclei were taken at the same geographic area for both dorsal and ventral sides of the retina in all sections and slides analyzed. […]
Immunohistochemistry was performed on treated and non-treated slides. […] Interacting probes were then detected by applying a solution of appropriate conjugated secondary antibodies Alexa Fluor 488 or Alexa fluor 633 diluted in PBS 1× 1 h at RT. […]

[5] = Rd1 PN8, intravitreal, 2.5 μM final eye concentration, 4 days post injection, vs DMSO treated eye
[6] = Rd1 eyes injected at PN8, 2.5 μM final eye concentration, vs vehicle (DMSO)
[7] = mouse embryonic fibroblasts, FIG. 7B
[8] = intravitreal, weekly, four injections, solution of 36 μM

ERG photopic response vs baseline ([2]; 3 cda/s.m^2 stimulation, one week after injection, both DMSO and UNC1999 treated animals): reduced response | ERG flicker response vs baseline ([2]; 5 Hz, both treated groups (DMSO and UNC1999)): a reduction of the response occurred | ERG flicker response ([2]; 15 Hz, all groups): no differences were observed | H3K27me3 mark by immunocytochemistry labelling [3, 7]: robust decreased of the mark | levels of EZH2 [3, 7]: slightly affected | calculated effective dose ([3]; obtained from increasing doses along with cell culture experiments): 6 µM
Compound: CCCc1cc(C)[nH]c(=O)c1CNC(=O)c1cc(-c2ccc(N3CCN(C(C)C)CC3)nc2)cc2c1cnn2C(C)C [UNC1999]
decline of hyper H3K27me3 signal in the ONL [1, 5]: 75% | decrease of number of TUNEL positive cells [1, 5]: 70% | H3K27me3 positive cells (in words) [1, 6]: marked reduction | TUNEL positive cells (in words) [1, 6]: marked reduction | retinal degeneration ([1]; Rd1 mouse): markedly delayed retinal degeneration | ERG photopic flicker response, treated vs control group ([2]; 5, 10 and 15 Hz, one week after intravitreal injection): No differences between the control and the treated groups were observed | ERG photopic maximum b-wave amplitude, treated vs vehicle group ([2]; healthy adult mice, one week after intravitreal injection): No differences between the two groups were noticed | ERG scotopic maximum b-wave amplitude ([2]; healthy adult mice, one week after intravitreal injection, vs DMSO group and baseline): no significant differences with the baseline; also recorded: No differences in retina activity | block of endogenous levels of H3K27me3 ([3]; proliferating mouse embryonic fibroblasts, 2.5 μM, compared to DMSO control): efficient to block the endogenous levels of H3K27me3 | levels of H3K27me3 hyper trimethylation, injected vs non-injected side ([4]; dorso-ventral axis, 4 days after the last injection): did not observe any statistical differences; also recorded: no changes were observed | number of photoreceptor rows in the dorsal compartment [4, 8]: No significant difference | number of photoreceptor rows in the ventral ONL [4, 8]: statistical significant preservation
